Experimental data taken from patent US20260199289A1, “USE OF GLYCOGEN METABOLISM INHIBITORS FOR THE TREATMENT OF CANCER” (THE UNIVERSITY OF VERMONT AND STATE AGRICULTURAL COLLEGE, priority 2022, published 2026).
“Also recorded” adds a separate entry of the source.

Experiments:
cell lysates = details: cited from earlier work
8505C cells [1] = experiment: SRB cell viability assay in ATC cells; assay type: cell-based, human; details: 8505C ATC cells; indicated concentrations, 48 hours
Experimental: In Vitro Cell Staining for Measuring Drug Efficacy—Thyroid cells (4.0×10^3) were seeded in 96 well plates with 100 μl CTM and allowed to adhere overnight. 100 μl of CTM containing 2× concentration of compound was overlayed in each well for 48 hours unless otherwise indicated. Each well then received 100 μl of 10% w/v cold trichloroacetic acid (Fisher) and incubated at 4° C. for 1 hour to fix the cells. Each well was rinsed 3× with DI H2O and stained with 100 μl 0.057% w/v sulforhodamine B (SRB, Sigma-Aldrich) for 30 minutes at room temperature in the dark. Wells were washed 4× with 300 μl 1% v/v acetic acid (Fisher), and remaining SRB stain was solubilized with 200 μl of 10 mM Tris buffer, pH 10.5 (Fisher). Absorbance was measured at 564 nm with a Synergy 2 Multi-Detection Microplate Reader (Agilent Technologies) and normalized to a vehicle control. Drug synergy was evaluated using the coefficient of drug interaction (CDI) formula: CDI=AB/(A×B)×100, where AB is the percent remaining cells of an indicated combination treatment, A is the average percent remaining cells of agent 1 alone, and B is the average percent remaining cells of agent 2 alone. […] Hao et al., “Effect of Lumiracoxib on Proliferation and Apoptosis of Human Nonsmall Cell Lung Cancer Cells In vitro,” Chin Med J (Engl) 121:602-607 (2008), which is hereby incorporated by reference in its entirety. […]

purified GYS1 = target: T1, purified GYS1 (Homo sapiens, UniProt P13807); details: cited from earlier work
T1 sequence (P13807 1-737): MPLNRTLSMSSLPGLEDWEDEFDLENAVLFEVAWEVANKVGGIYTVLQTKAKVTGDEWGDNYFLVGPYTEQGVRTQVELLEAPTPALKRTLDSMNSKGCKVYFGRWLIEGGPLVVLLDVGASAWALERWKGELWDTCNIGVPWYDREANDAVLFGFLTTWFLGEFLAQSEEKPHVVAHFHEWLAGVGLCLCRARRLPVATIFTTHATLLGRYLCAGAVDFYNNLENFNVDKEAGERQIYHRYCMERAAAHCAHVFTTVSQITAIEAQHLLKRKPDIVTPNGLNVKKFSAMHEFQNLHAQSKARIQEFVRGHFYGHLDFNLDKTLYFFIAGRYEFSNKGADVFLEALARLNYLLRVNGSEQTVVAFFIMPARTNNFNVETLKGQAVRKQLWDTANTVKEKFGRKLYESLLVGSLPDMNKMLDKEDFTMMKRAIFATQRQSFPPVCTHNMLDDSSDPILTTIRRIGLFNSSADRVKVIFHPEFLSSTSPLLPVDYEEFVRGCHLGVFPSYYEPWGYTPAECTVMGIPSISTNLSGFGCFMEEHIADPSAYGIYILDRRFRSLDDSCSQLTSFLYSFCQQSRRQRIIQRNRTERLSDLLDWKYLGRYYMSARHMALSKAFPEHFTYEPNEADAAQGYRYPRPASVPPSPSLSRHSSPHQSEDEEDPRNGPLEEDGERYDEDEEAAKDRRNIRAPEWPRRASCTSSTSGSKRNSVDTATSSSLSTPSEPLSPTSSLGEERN

8505C cells [2] = experiment: Glycogen content (colorimetric assay, TEM) in ATC cells; assay type: cell-based, human; details: for glycogen content: 8505C cells, overnight treatment
Experimental: Transmission Electron Microscopy of Glycogen Deposits—Cells were seeded in 10 cm dishes and allowed to adhere overnight. […] Cells were then rinsed with PBS and lifted with trypsin for preparation for TEM as described previously. Thwe et al., “Cell-intrinsic Glycogen Metabolism Supports Early Glycolytic Reprogramming Required for Dendritic Cell Immune Responses,” Cell Metabolism 26:558-567.e555 (2017), which is hereby incorporated by reference in its entirety.
PYGB RNA Interference—For validating successful PYGB knockdown, 4.0×10^4 cells were plated in 12 well plates containing 0.2% Lipofectamine™ 3000 Transfection Reagent and the indicated concentration of siRNA targeting PYGB or control siRNA in 1 ml CTM. RNA was extracted 72 hours later for RT-qPCR analysis and protein was extracted 96 hours later for immunoblotting. For measuring the effect of PYGB knockdown on cell viability, 1.0×10^3 cells were seeded in 96 well plates with 0.15% Lipofectamine™ 3000 Transfection Reagent and the indicated concentration of siRNA targeting PYGB or control siRNA in 200 μl CTM for 7 days before conducting the SRB assay. For measuring the effect of PYGB knockdown on glycogen content, 6.5×10^5 cells were seeded in 10 cm dishes with 0.2% Lipofectamine™ 3000 Transfection Reagent and the indicated concentration of siRNA targeting PYGB or control siRNA in 10 ml CTM for 4 days preceding cell lysis for glycogen determination.
Quantification of Levels of Glycogen, Glucose-1-Phosphate, Glucose-6-Phosphate, Lactate, ATP, Glucose, NADPH, and Glutathione—Briefly, cells were seeded in 10 cm dishes (for measuring glycogen and NADPH), 6 well plates (GIP, G6P, lactate, glucose, and glutathione), or 96 well plates (ATP) and allowed to adhere overnight. CTM was aspirated and cells were rinsed with PBS before application of compounds dissolved in CTM for 24 hours, at which point cells were ~90% confluent. CTM was then aspirated, cells were rinsed with PBS, and lysed according to the respective manufacturer protocol (see Table 4) for metabolite analysis.

[3] = cited from earlier work
OCUT-2 cells = experiment: SRB cell viability assay in OCUT-2 cells; assay type: cell-based, human; details: indicated concentrations, 48 hours
Experimental: In Vitro Cell Staining for Measuring Drug Efficacy—Thyroid cells (4.0×10^3) were seeded in 96 well plates with 100 μl CTM and allowed to adhere overnight. 100 μl of CTM containing 2× concentration of compound was overlayed in each well for 48 hours unless otherwise indicated. Each well then received 100 μl of 10% w/v cold trichloroacetic acid (Fisher) and incubated at 4° C. for 1 hour to fix the cells. Each well was rinsed 3× with DI H2O and stained with 100 μl 0.057% w/v sulforhodamine B (SRB, Sigma-Aldrich) for 30 minutes at room temperature in the dark. Wells were washed 4× with 300 μl 1% v/v acetic acid (Fisher), and remaining SRB stain was solubilized with 200 μl of 10 mM Tris buffer, pH 10.5 (Fisher). Absorbance was measured at 564 nm with a Synergy 2 Multi-Detection Microplate Reader (Agilent Technologies) and normalized to a vehicle control. Drug synergy was evaluated using the coefficient of drug interaction (CDI) formula: CDI=AB/(A×B)×100, where AB is the percent remaining cells of an indicated combination treatment, A is the average percent remaining cells of agent 1 alone, and B is the average percent remaining cells of agent 2 alone. […] Hao et al., “Effect of Lumiracoxib on Proliferation and Apoptosis of Human Nonsmall Cell Lung Cancer Cells In vitro,” Chin Med J (Engl) 121:602-607 (2008), which is hereby incorporated by reference in its entirety.

[4] = test system: mouse embryonic fibroblasts; details: cited from earlier work

Row | Structure (SMILES) | 14C-glucose incorporation (cell lysates) | cell viability (SRB assay) (8505C cells [1]) | inhibition of purified GYS1 (purified GYS1) | glycogen content (8505C cells [2]) | glycogen storage in rat brains [3] | cell viability (SRB assay) (OCUT-2 cells) | decrease of glycogen stores [4] | decrease of glycogen stores (8505C cells [2]; ATC cells, stated as comparable to the literature value)
1 | Oc1ccc(-c2c(-c3ccc(O)c(O)c3O)n[nH]c2C(F)(F)F)cc1 [yGsy2p-IN-1] | decreased 14C-glucose incorporation in cell lysates | limit ATC viability; also recorded: limited cell viability in ATC cells | robustly inhibited purified GYS1 | decrease glycogen content; also recorded: successfully reduced glycogen levels | – | – | – | –
2 | CON(C)C(=O)[C@H](O)[C@H](Cc1ccccc1)NC(=O)c1cc2cc(Cl)ccc2[nH]1 [CP316819, 5-chloro-N-[(2S,3R)-3-hydroxy-4-[methoxy(methyl)amino]-4-oxo-1-phenylbutan-2-yl]-1H-indole-2-carboxamide] | – | sensitive; also recorded: limited cell viability | – | increased the glycogen content | enhanced glycogen storage in rat brains | – | – | –
3 | COc1ccccc1O [guaiacol] | – | decrease ATC cell viability | – | decrease | – | decrease ATC cell viability | 50% | ~50%
